Here are results for 2 molecules from publication PMC3722118, “Hellebrin and its aglycone form hellebrigenin display similar in vitro growth inhibitory effects in cancer cells and binding profiles to the alpha subunits of the Na^+/K^+-ATPase” (Molecular Cancer, 2013).

Assay [1] deals with HT-29 colon cancer cells. Kind of assay: O2 consumption rate (MitoXpress assay). It counts as cell-based, human. As to conditions: compounds at their IC50 (MTT), 24 h. As for the experimental part: For enzymatic determination of lactate production, confluent tumor cells were incubated with 10 mM glucose for 24 hours. Culture medium was then filtered through centrifugation columns with a 10 KDa cutoff, and L-lactate concentrations were determined on an ISCUSflex analyzer (CMA Microdialysis AB, Solna, Sweden). O2 consumption was determined using the MitoXpress assay according to the manufacturer’s instructions (LuxCell Biosciences, Cork, Ireland). Briefly, after adding the oxygen probe to tumor cells cultured for 24 hours in 96-well microplates with or without the tested compounds, the wells were sealed with mineral oil, and respiration was evaluated using time-resolved fluorescent plate readers. Under these conditions, O2 depletion was translated into an increase in probe phosphorescence signal, and the slope of this signal was used to derive the O2 consumption rate.
Figure 6 Metabolic profiling of human HT29 colon cancer cells treated with cardiotonic steroids. A: Extracellular lactate concentrations and B: O2 consumption rates in HT29 cancer cells treated with the indicated compounds at their IC50in vitro growth inhibitory concentrations (see Table 1). The data (mean ± SEM from triplicates) are expressed in mM lactate accumulated in the extracellular medium after 24 hours and arbitrary units derived from time-resolved fluorescent signal.min^-1.

In assay [2] the test system is PC-3 prostate cancer cells. Kind of assay: MTT colorimetric in vitro growth inhibition assay. The class given is cell-based, human. As to conditions: Homo sapiens, 72 h, read-out: IC50 (nM) PC-3. The source says: (§1) The histological types and origins of the eight human cancer cell lines that were used for the MTT colorimetric assay are detailed in the legend of Table 1. Two mouse cancer cell lines were also used, the CT26.WT colon cancer cell line (ATCC code CRL-2638) and the B16F10 melanoma cell line (ATCC code CRL-6475). Both cell lines were obtained from the American Type Culture Collection (ATCC, Manassas, VA). A control cell line (human NHDF fibroblasts) was obtained from PromoCell (code c-12300; Heidelberg, Germany). The cell lines detailed in Figure 2A are a generous gift from the National Cancer Institute (NCI, Bethesda, USA) to Steven Karlish’s lab.
(§2) The cancer cells were cultured in RPMI (Lonza, Verviers, Belgium) medium supplemented with 10% heat-inactivated fetal calf serum (Lonza). All culture media were supplemented with 4 mM glutamine, 100 μg/mL gentamicin, 200 U/mL penicillin and 200 μg/mL streptomycin (Lonza). The NHDF fibroblasts were cultured in Lonza medium cc3132 KT FGM-2 BulletKit.
(§3) The overall growth level of the human cancer cell lines was determined using a colorimetric MTT (3-(4,5-dimethylthiazol-2yl)-2,5-diphenyltetrazolium bromide, Sigma, Belgium) assay as detailed previously. Briefly, this test measures the number of metabolically active (thus living) cells that are able to transform the yellow MTT into the blue formazan dye via a mitochondrial reduction involving succinate dehydrogenase. The amount of formazan obtained at the end of the experiment (measured by spectrophotometry) is directly proportional to the number of living cells. The determination of the optical density in the control compared to the treated cells therefore enables quantitative measurements of the effects of compounds on the growth of normal as well as cancer cells in vitro.
(§4) Each experimental condition was performed in six replicates.

The test system of assay [3] is T98G glioma cells. Kind of assay: MTT colorimetric in vitro growth inhibition assay. The class given is cell-based, human. As to conditions: Homo sapiens, T98G, 72 h, read-out: IC50 (nM) T98G.
Text: as §1, §2, §3, §4

The test system of assay [4] is SKMEL-28 melanoma cells. Kind of assay: MTT colorimetric in vitro growth inhibition assay. The class given is cell-based, human. To be noted: Homo sapiens, SK-MEL-28, 72 h, read-out: IC50 (nM) SKMEL-28.
Text: as §1, §2, §3, §4

For assay [5], the system named is Hs683 glioma cells. The experiment in a line: MTT colorimetric in vitro growth inhibition assay. It counts as cell-based, human. As to conditions: Homo sapiens, Hs 683, 72 h, read-out: IC50 (nM) Hs683.
Text: as §1, §2, §3, §4

In assay [6] the test system is HT-29 colon cancer cells. The experiment in a line: MTT colorimetric in vitro growth inhibition assay. It counts as cell-based, human. To be noted: Homo sapiens, HT-29, 72 h, read-out: IC50 (nM) HT-29.
Text: as §1, §2, §3, §4

In assay [7] the test system is U373 glioma cells. The experiment in a line: MTT colorimetric in vitro growth inhibition assay. It counts as cell-based, human. As to conditions: Homo sapiens, U373 MG, 72 h, read-out: IC50 (nM) U373.
Text: as §1, §2, §3, §4

Assay [8] concerns A549 NSCLC cells. Kind of assay: MTT colorimetric in vitro growth inhibition assay. The class given is cell-based, human. To be noted: Homo sapiens, A549, 72 h, read-out: IC50 (nM) A549.
Text: as §1, §2, §3, §4

Assay [9] concerns MCF-7 breast cancer cells. Kind of assay: MTT colorimetric in vitro growth inhibition assay. It counts as cell-based, human. To be noted: Homo sapiens, MCF7, 72 h, read-out: IC50 (nM) MCF-7.
Text: as §1, §2, §3, §4

The test system of assay [10] is CT26 colon cancer cells. The experiment in a line: MTT growth inhibition in mouse cancer cells. To be noted: mouse cancer cell line, read-out: IC50 growth inhibitory concentration in CT26 colon cancer cells. The class given is cell-based.
Text: as §1
(§5) The cancer cells were cultured in RPMI (Lonza, Verviers, Belgium) medium supplemented with 10% heat-inactivated fetal calf serum (Lonza). […]
(§6) The overall growth level of the human cancer cell lines was determined using a colorimetric MTT (3-(4,5-dimethylthiazol-2yl)-2,5-diphenyltetrazolium bromide, Sigma, Belgium) assay as detailed previously. […] The amount of formazan obtained at the end of the experiment (measured by spectrophotometry) is directly proportional to the number of living cells. The determination of the optical density in the control compared to the treated cells therefore enables quantitative measurements of the effects of compounds on the growth of normal as well as cancer cells in vitro. […]

Assay [11] has as its system B16F10 melanoma cells. Kind of assay: MTT growth inhibition in mouse cancer cells. The class given is cell-based. To be noted: B16-F10; mouse cancer cell line; read-out: IC50 growth inhibitory concentration in B16F10 melanoma cells.
Text: as §1, §5, §6

The test system of assay [12] is human cancer cells (A549, U373, Hs683, T98G, MCF-7, SKMEL-28, PC-3, HT-29). Kind of assay: MTT growth inhibition, mean over the eight human cancer cell lines. The class given is cell-based. As to conditions: 72 h, read-out: IC50 (nM) Mean ± SEM.
Text: as §1, §2, §3, §4

Assay [13] addresses T1, human α1β1 NaK complex (Homo sapiens, UniProt P05023).
T1 construct: made in house; host or cells: Pichia pastoris strain SMD1165 (membranes)
Kind of assay: 3H-ouabain competitive displacement on P. pastoris membranes. As to conditions: 3H-ouabain displacement, three independent experiments; read-out: Affinity (nM) α-1 (KD ± SEM). The class given is binding. The protocol: (§7) K0.5 was calculated using a one site inhibition model: B/BCG=0 = K0.5/([CG] + K0.5). […] Binding of each cardiac glycoside was estimated in 3 separate experiments.
(§8) Average KD or Ki values ± SEM for each isoform were calculated. Statistical significance was calculated by the unpaired Students t-test. P values <0.05 were considered significant.

For assay [14], the target named is T2, human α3β1 NaK complex (Homo sapiens, UniProt P13637).
T2 construct: made in house; host or cells: Pichia pastoris strain SMD1165 (membranes)
The description is as above. It counts as binding. The protocol: as §7, §8

Assay [15] concerns the target T3, human α2β1 NaK complex (Homo sapiens, UniProt P50993).
T3 construct: made in house; host or cells: Pichia pastoris strain SMD1165 (membranes)
The description is as above. It counts as binding. As for the experimental part:
as §7, §8

Assay [16] has as its system NHDF fibroblasts. The experiment in a line: MTT growth inhibition in non-cancerous control cell line. The class given is cell-based. As to conditions: NHDF, normal human fibroblasts, read-out: in vitro growth inhibitory effects (IC50) in NHDF fibroblasts.
Text: as §1, §2, §3, §4

The target of assay [17] is human NaK. Details: method as in PMID 17706876. To be noted: read-out: Ki for inhibition of activity, human NaK; cited from earlier work.
For assay [18], the target named is Rodent NaK. More on the design: method as in PMID 17706876. As to conditions: read-out: Ki for inhibition of activity, rodent NaK; cited from earlier work.
The mark [19] stands for this setting: three days of culture, * three independent experiments, ** one experiment, six replicates.

Read-outs that look alike come from different tables or passages of the source.

Consider `C[C@@H]1O[C@@H](O[C@H]2CC[C@@]3(C)[C@H](CC[C@@H]4[C@@H]3[C@H](O)C[C@]3(C)[C@@H](c5ccc(=O)oc5)CC[C@]43O)C2)[C@H](O)[C@H](O)[C@H]1O` [Gamabufotalin-rhamnoside], for which the “O2 consumption rate (cell respiration)” value in assay [1] was “significantly reduced”. Also, the IC50 in [2] was found to be 6 ± 1 nM; in assay [3] it was 7 ± 1 nM; in assay [4], 18 ± 7 nM; in assay [5], 4 ± 1 nM; in assay [6] it was 8 ± 1 nM; in assay [7], 6 ± 2 nM. For the same molecule, the IC50 turned out to be 3 ± 1 nM in assay [8]; 17 ± 5 nM in assay [9]; 900 nM in assay [10]; 700 nM in assay [11]; 9 ± 2 nM in assay [12] (Homo sapiens); 1840 nM in assay [16]. Further, the Kd in [13] amounted to 30 ± 7 nM; in [14] (3H-ouabain displacement, three independent experiments, read-out: Affinity (nM) α-3 (KD ± SEM)), 17 ± 2 nM; in [15] (3H-ouabain displacement, three independent experiments, read-out: Affinity (nM) α-2 (KD ± SEM)), 36 ± 10 nM. Also, the “Selectivity α-1 / α-3” value in assay [14] (ratio of KD α-1 to KD α-3) is given as 1.8. Also, the “Selectivity α-1 / α-2” value in assay [15] (ratio of KD α-1 to KD α-2) is given as 0.8.

With `C[C@@H]1O[C@@H](O[C@H]2C[C@@H](O)[C@]3(CO)[C@H]4[C@H](O)C[C@]5(C)[C@@H](C6=CC(=O)OC6)CC[C@]5(O)[C@@H]4CC[C@]3(O)C2)[C@H](O)[C@H](O)[C@H]1O` [Ouabain], the “O2 consumption rate (cell respiration)” value in [1] was “significantly reduced”. For the same molecule, the IC50 is 63 ± 10 nM in assay [2] (setting [19]); 80 ± 3 nM in assay [3] (setting [19]); 83 ± 13 nM in assay [4] (setting [19]); 34 ± 3 nM in assay [5] (setting [19]); 84 ± 8 nM in assay [6] (setting [19]); 78 ± 1 nM in assay [7] (setting [19]). Besides, the IC50 in [8] (setting [19]) stood at 37 ± 2 nM; in [9] (setting [19]) it was 100 ± 17 nM; in assay [12] (mean over eight human cancer cell lines, three days of culture), 70 ± 8 nM. Also, the Ki in assay [17] was 100 nM; in assay [18], 100 µM.
